Measurements published in US20250074871A1, “PHENETHYLAMINES AND METHODS OF PREPARATION THEREOF” (priority 2022, published 2025).
Where two headings read alike, the source gives them in different places.

Key:
Format in all cases: cell-based
5-HT2A receptor = molecular target: T1, 5-HT2A receptor (Homo sapiens, UniProt P28223); assay: 5-HT2A Gq dissociation BRET functional assay; conditions: Table 2; for 5-HT2A BRET Eff %: normalized to % 5-HT stimulation; for EC50: at least three replicate trials
T1 construct: expressed in transfected cells; host or cells: HEK293T
T1 sequence (P28223 whole entry): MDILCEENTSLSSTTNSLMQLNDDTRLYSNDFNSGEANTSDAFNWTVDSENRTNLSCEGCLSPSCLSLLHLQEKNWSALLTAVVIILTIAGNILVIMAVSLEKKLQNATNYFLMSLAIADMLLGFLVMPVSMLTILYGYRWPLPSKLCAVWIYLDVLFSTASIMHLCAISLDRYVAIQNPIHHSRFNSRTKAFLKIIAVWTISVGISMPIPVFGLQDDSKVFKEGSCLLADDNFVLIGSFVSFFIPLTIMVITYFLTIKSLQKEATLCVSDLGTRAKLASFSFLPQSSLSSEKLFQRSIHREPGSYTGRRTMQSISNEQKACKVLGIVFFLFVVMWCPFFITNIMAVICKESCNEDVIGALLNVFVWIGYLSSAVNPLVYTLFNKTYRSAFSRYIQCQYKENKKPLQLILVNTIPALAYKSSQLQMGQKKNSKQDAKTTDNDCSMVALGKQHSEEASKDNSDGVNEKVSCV

5-HT2B receptor = molecular target: T2, 5-HT2B receptor (Homo sapiens, UniProt P41595); assay: 5-HT2B Gq dissociation BRET functional assay; conditions: Table 2; for EC50: at least three replicate trials; for 5-HT2B BRET Eff %: normalized to % 5-HT stimulation
T2 construct: expressed in transfected cells; host or cells: HEK293T
T2 sequence (P41595 whole entry): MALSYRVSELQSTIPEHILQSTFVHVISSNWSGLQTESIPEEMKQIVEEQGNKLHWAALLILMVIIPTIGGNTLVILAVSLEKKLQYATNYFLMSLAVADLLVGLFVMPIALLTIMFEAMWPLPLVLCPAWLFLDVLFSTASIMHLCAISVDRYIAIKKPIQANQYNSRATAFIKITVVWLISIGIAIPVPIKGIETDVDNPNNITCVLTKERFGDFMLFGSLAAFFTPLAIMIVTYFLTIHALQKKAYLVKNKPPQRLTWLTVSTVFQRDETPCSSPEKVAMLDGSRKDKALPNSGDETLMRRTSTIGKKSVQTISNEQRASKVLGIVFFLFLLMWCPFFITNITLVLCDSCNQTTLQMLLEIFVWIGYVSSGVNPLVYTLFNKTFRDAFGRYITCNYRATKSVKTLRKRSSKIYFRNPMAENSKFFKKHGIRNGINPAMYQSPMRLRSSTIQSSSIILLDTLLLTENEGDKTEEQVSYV

5-HT2C receptor = molecular target: T3, 5-HT2C receptor (Homo sapiens, UniProt P28335); assay: cell-based; conditions: Table 2; for EC50: at least three replicate trials, read-out: 5-HT2C BRET EC50; for 5-HT2C BRET Eff %: normalized to % 5-HT stimulation
T3 construct: expressed in transfected cells; host or cells: HEK293T
T3 sequence (P28335 33-458): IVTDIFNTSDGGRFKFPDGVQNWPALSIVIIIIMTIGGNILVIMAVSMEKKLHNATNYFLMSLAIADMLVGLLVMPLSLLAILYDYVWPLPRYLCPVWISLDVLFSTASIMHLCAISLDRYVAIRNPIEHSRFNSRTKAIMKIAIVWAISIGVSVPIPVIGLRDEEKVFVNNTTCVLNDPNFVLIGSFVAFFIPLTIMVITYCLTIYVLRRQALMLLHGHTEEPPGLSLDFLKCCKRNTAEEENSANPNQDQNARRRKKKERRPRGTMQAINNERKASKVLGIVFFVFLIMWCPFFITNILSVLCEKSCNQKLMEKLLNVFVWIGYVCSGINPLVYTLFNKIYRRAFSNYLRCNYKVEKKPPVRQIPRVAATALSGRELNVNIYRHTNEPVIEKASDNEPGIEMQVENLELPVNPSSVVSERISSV

Compound	5-HT2A BRET Eff % (5-HT2A receptor) [%]	EC50 (5-HT2B receptor; 5-HT2B BRET EC50 (nM)) [nM]	5-HT2B BRET Eff % (5-HT2B receptor) [%]	EC50 (5-HT2C receptor) [nM]	5-HT2C BRET Eff % (5-HT2C receptor) [%]	EC50 (5-HT2A receptor; 5-HT2A BRET EC50 (nM)) [nM]	5-HT2B BRET EC50 (nM) / Eff % (5-HT2B receptor)	EC50 (5-HT2A receptor; read-out: 5-HT2A BRET EC50) [nM]	EC50 (5-HT2B receptor; read-out: 5-HT2B BRET EC50) [nM]	5-HT2C BRET EC50 (nM) / Eff % (merged cell, word) (5-HT2C receptor)
NCCc1c[nH]c2ccc(O)cc12 [5-hydroxytryptamine (serotonin), 5-hydroxytryptamine, reference compound]	100									
COc1cc(C#N)c(F)cc1CCNCc1ccccc1O [Cpd #4]	99	4090	73	37.5	115	2.4				
COc1cc(C#N)ccc1CCNCc1ccccc1F [Cpd #6]	81			2120	130	381	Inactive			
COc1cc(C#N)ccc1CCNCc1cccc(F)c1 [Cpd #7]	84			800	126	133	Inactive			
COc1cc(C#N)ccc1CCNCc1ccc(F)cc1 [Cpd #8]	52			8740	79	13100	Inactive			
COc1cc(C#N)ccc1CCNCc1cccc(Cl)c1 [Cpd #13]	69			1840	96	393	Inactive			
COc1cc(C#N)ccc1CCNCc1ccc(Cl)cc1 [Cpd #14]	40			13300	74	14300	Inactive			
COc1ccc(CNCCc2ccc(C#N)cc2OC)cc1 [Cpd #29]	59			924	75	3950	Inactive			
COc1cc(C#N)ccc1CCNC1COc2ccccc21 (centres unmarked) [Cpd #52]	69			12100	125		Inactive	1040		
COc1cc(C#N)ccc1CCNCc1c(Cl)cccc1Cl [Cpd #58]	79			2170	85	496	Inactive			
COc1cc(C#N)ccc1CCNCc1ccc(F)cc1F [Cpd #59]	58			9930	94	14100	Inactive			
N#Cc1ccc(CCNCc2cccc3ccsc23)c(O)c1 [Cpd #70]	11			5400	160		Inactive	0.3		
N#Cc1ccc(CCNCc2cccc3cc[nH]c23)c(O)c1 [Cpd #71]	59			10700	92		Inactive	1140		
COc1cc(C#N)ccc1CCNCc1cccc2ncn(C)c12 [Cpd #73]	4			0.04	7		Inactive	73		
COc1cc(C#N)ccc1CCN(C)Cc1ccccc1Cl [Cpd #88]	14	4980	20	310000	86	0.01				
COc1ccc(CCNCc2ccccc2O)c(OC)c1 [Cpd #96, reference compound]	95			7.2	109	2.3	Inactive			
COc1cc(-c2cnoc2)ccc1CCNCc1ccccc1Cl [Cpd #101]	65			9520	116		Inactive	270		
COc1cc(-c2ncco2)ccc1CCNCc1ccccc1Cl [Cpd #102]	61		143	1640	101			2090	5370	
COc1cc(-c2ncccn2)ccc1CCNCc1ccccc1Cl [Cpd #104]	71			5690	106		Inactive	4890		
COc1cc(-c2cncnc2)ccc1CCNCc1ccccc1Cl [Cpd #105]	86			1490	107		Inactive	1610		

Compound	5-HT2A BRET Eff % (5-HT2A receptor) [%]	EC50 (5-HT2B receptor; 5-HT2B BRET EC50 (nM)) [nM]	5-HT2B BRET Eff % (5-HT2B receptor) [%]	EC50 (5-HT2C receptor) [nM]	5-HT2C BRET Eff % (5-HT2C receptor) [%]	EC50 (5-HT2A receptor; 5-HT2A BRET EC50 (nM)) [nM]	5-HT2B BRET EC50 (nM) / Eff % (5-HT2B receptor)	EC50 (5-HT2A receptor; read-out: 5-HT2A BRET EC50) [nM]	EC50 (5-HT2B receptor; read-out: 5-HT2B BRET EC50) [nM]	5-HT2C BRET EC50 (nM) / Eff % (merged cell, word) (5-HT2C receptor)
COc1cc(C#N)ccc1CCNCc1ccccc1O [Cpd #113]	90	1290	34	30.3	102	4.9				
N#Cc1ccc(CCNCc2ccccc2O)cc1 [Cpd #114]	88		11	322	92			154	6490	
N#Cc1ccc(CCNCc2ccccc2O)c(OC(F)(F)F)c1 [Cpd #115]	94			380	104	212	Inactive			
Oc1cc(C(F)(F)F)ccc1CCNCc1ccccc1O [Cpd #116]	89			1.7	100	1	Inactive			
COc1ccc(CCNCc2ccccc2SC)c(O)c1 [Cpd #119]	100	2540	108	114	119	4.6				
CSc1ccccc1CNCCc1ccc(O)cc1O [Cpd #120]	90						Inactive	518		Inactive
CSc1ccc(CCNCc2ccccc2SC)c(O)c1 [Cpd #121]	94	175	89	44.1	110	3.6				
CSc1ccccc1CNCCc1ccc(C(F)F)cc1O [Cpd #123]	96	6720	95	30	120	3.2				
N#Cc1ccc(CCNCc2ccccc2OC(F)(F)F)c(O)c1 [Cpd #124]	83		97	21.1	98			159	453	
CCCCCc1ccc(CCNCc2ccccc2O)c(OC)c1 [Cpd #125]	96			55.8	105	13.5	Inactive			
COc1cc(Cc2ccccc2)ccc1CCNCc1ccccc1O [Cpd #126]	99		−23	3.8	111			1.2	0.02	
COc1cc(Oc2ccccc2)ccc1CCNCc1ccccc1O [Cpd #127]	100		−20	148	104			27.1	3.8	
COc1cc(C#N)c(F)cc1CCNCc1ccccc1SC [Cpd #128]	99	723	109	114	118	7.8				
N#Cc1cc(O)c(CCNCc2ccccc2O)cc1F [Cpd #129]	95	249	62	67	105	7.8				
COc1ccccc1CNCCc1ccc(F)cc1O [Cpd #130]	84			8.7	101	18	Inactive			
Cc1ccc(CCNCc2cccc3c2OCO3)c(O)c1 [Cpd #132]	70			770	84	49	Inactive			
COc1cc(C#N)ccc1CCNCC1CC1 [Cpd #133]	64		−6	34400	71			10700	0.07	
CSc1ccccc1CCNCCc1ccc(C#N)cc1O [Cpd #134]	67		85	160	87			384	620	
CSc1ccccc1CCCNCCc1ccc(C#N)cc1O [Cpd #135]	51		15	121	65			423	502	
CSc1ccccc1CNCCCc1ccc(C#N)cc1O [Cpd #136]	55		49	412	43			1380	7330	
